Assays:
[1] = Neutralization curve / buffer capacity (FIG. 3); type: physicochemical; settings: for usable buffer capacity in the range of the physiological pH value: based on the ratio of spent base to substrate
Description: The usable buffer capacity in the range of the physiological pH value; with N-acetylhistidine 60%, and with histidine 30% based on the ratio of spent base to substrate.

rat hepatocytes [2] = assay: Toxicity of histidine under warm conditions in cultivated rat hepatocytes (FIG. 4); type: cell-based; settings: 198 mM; 5 hrs at 37° C., aerobic, Krebs-Henseleit buffer, pH 7.2
Protocol: Cultivated rat hepatocytes were incubated for 5 hrs at 37° C. under aerobic conditions in the presence of, and in the absence of 198 mM of L-histidine, or 198 mM of N-acetylhistidine. The base solution was Krebs-Henseleit buffer (KH), a physiological saline solution often used in cell cultures; the NaCl concentration of the histidine (derivative) containing solution was decreased by 99 mM and the histidine (derivative) solution was adjusted by the addition of HCl or NAOH to pH 7.2.

[3] = system: iron-dependent hypothermic injury, cold-induced apoptosis; assay: Inhibition of iron-dependent hypothermic injury / cold-induced apoptosis by iron-chelating agents; type: cell-based
Description: Iron-chelating agents may serve for the inhibition of the iron-dependent hypothermic injury, or of the cold-induced apoptosis.

hepatocytes = assay: Cell damage of hepatocytes by hydrogenperoxide (FIG. 5); type: cell-based; settings: 1 mM/l in N4 solution + 20 mM/l H2O2
Protocol: 1: N4+20 mM/l H2O2 • graph no. 2: N4+20 mM/l H2O2+1 mM/l 4-chloro-N-methyl-benzohydroxamic acid • graph no. 3: N4+20 mM/l H2O2+1 mM/l 2-hydroxy-3-methyl-isocarbosteryl • graph no. 4: N4+20 mM/l H2O2+1 mM/l 3,4,5-trimethoxy-N-methyl-benzohydroxamic acid • graph no. 5: N4+20 mM/l H2O2+1 mM/l 3,4-dimethoxy-N-methyl-hydroxamic acid, N4 meaning the solution according to example II given hereinafter, but without Trolox and without hydroxamic acid derivative.

rat hepatocytes [4] = assay: Hypothermic injury of cultivated rat hepatocytes in UW solution, LDH release (FIG. 2); type: cell-based; settings: 1 mM; 24 hrs at 4° C. in UW solution, aerobic; reheated 3 hrs at 37° C. in cell culture medium
Protocol: Cultivated rat hepatocytes were incubated for 24 hrs at 4° C. in a University of Wisconsin solution (UW) under aerobic conditions in the presence of, and in the absence of 1 mM of 3,4-dimethoxy-N-methyl-benzohydroxamic acid, and subsequently reheated for 3 hrs in a cell culture medium (37° C.). The secretion of cytosolic lactate […] (LDH) served as the parameter of the cell damage.

[5] = system: rat liver endothelial cells; assay: Hypothermic injury of cultivated rat liver endothelial cells, LDH release (FIG. 1); type: cell-based; settings: 1 mM; 72 hrs at 4° C. in UW solution, aerobic; rewarmed 3 hrs at 37° C. in cell culture medium
Protocol: Cultivated rat liver endothelial cells were incubated for 72 hrs at 4° C. in University of Wisconsin solution (UW) under aerobic conditions in the presence of, and in the absence of 1 mM of salicyl-N-methylhydroxamic acid, and subsequently rewarmed for 3 hrs in a cell culture medium (37° C.). The release of cytosolic lactate dehydrogenase (LDH) served as the parameter of the cell damage.

Compound	effectiveness in avoiding iron-dependent hypothermic injury [3]	protection from cell damage by hydrogenperoxide (hepatocytes)	other results
CC(=O)N[C@@H](Cc1c[nH]cn1)C(=O)O [N-acetylhistidine]			usable buffer capacity in the range of the physiological pH value [1]: 60%; buffer capacity improved by factor compared to histidine/histidine HCl ([1]; factor versus histidine/histidine HCl): 2
N[C@@H](Cc1c[nH]cn1)C(=O)O [histidine, L-histidine]	ineffective		usable buffer capacity in the range of the physiological pH value [1]: 30%; toxicity under warm conditions (rat hepatocytes [2]): toxicity
Cc1cc2ccccc2c(=O)n1O [2-hydroxy-3-methyl-isocarbosteryl, 2-hydroxy-3-methyl-isocarbostyril]		protection	
COc1cc(C(=O)N(C)O)cc(OC)c1OC [3,4,5-trimethoxy-N-methyl-benzohydroxamic acid]		protection	
O=C(O)CN(CCN(CC(=O)O)CC(=O)O)CC(=O)O [EDTA]	ineffective		
COc1ccc(C(=O)N(C)O)cc1OC [3,4-dimethoxy-N-methyl-benzohydroxamic acid]		protection	inhibition of hypothermic injury (cytosolic LDH) (rat hepatocytes [4]): inhibition of hypothermic injury
O=C1CCC(=O)N1O [N-hydroxysuccinimide]	ineffectiveness		
O=c1c2ccccc2nnn1O [3,4-dihydro-3-hydroxy-4oxo-1,2,3-benzotriazine]	ineffectiveness		
CN(O)C(=O)c1ccc(Cl)cc1 [4-chloro-N-methyl-benzohydroxamic acid]		protection	
CN(O)C(=O)c1ccccc1O [salicyl-N-methylhydroxamic acid]			inhibition of hypothermic injury (release of cytosolic LDH) [5]: inhibition of hypothermic injury

Source: patent publication US9603354B2, “Protective solutions for organs” (DR. FRANZ KOEHLER CHEMIE GMBH, priority 2002, dated 2017)
